{"source": "patent US20230021483A1", "about": "“[…] […] METHOD AND CLASSIFICATION OF PHARMACEUTICAL COMPONENTS BY USING TRANSCRIPTOMES” (National Institutes of Biomedical Innovation, Health and …, priority 2016, published 2023)", "key": {"[1]": {"system": "preferentially upregulated genes in LV, SP, LN", "assay": "Z-score-based differential gene expression analysis (adjuvant group- or adjuvant-associated genes, 40 module mapping, TargetMine annotation)", "assay_type": "in vivo, C57BL/6 mice", "conditions": "for Shisa5 1437503_a_at (Group G1, Modules 20) / Stat1 1450033_a_at (Group G1, Modules 20) / Stat1 1450034_at (Group G1, Modules 20) / Tdrd7 1426716_at (Group G1, Modules 20) / Tor1aip2 1418115_s_at (Group G1, Modules 20) / Tor1aip2 1418116_at (Group G1, Modules 20) / Tor1aip2 1435526_at (Group G1, Modules 20) / Trim12a 1437432_a_at (Group G1, Modules 20) / Uba7 1426970_a_at (Group G1, Modules 20) / Adar 1425405_a_at (Group G1, Modules 20) / Adar 1434268_at (Group G1, Modules 20) / Ddx58 1436562_at (Group G1, Modules 20) / Ddx58 1456890_at (Group G1, Modules 20) / Eif2ak2 1422005_at (Group G1, Modules 20) / G3bp2 1421323_a_at (Group G1, Modules 20) / Gm9706///Isg15 1431591_s_at (Group G1, Modules 20) / H2-T10///H2-T22///H2-T9 1449875_s_at (Group G1, Modules 20) / Ifih1 1426276_at (Group G1, Modules 20) / Ifit1 1450783_at (Group G1, Modules 20) / Ifit3 1449025_at (Group G1, Modules 20) / Irf7 1417244_a_at (Group G1, Modules 20) / Irgm1 1418825_at (Group G1, Modules 20) / Mndal 1426906_at (Group G1, Modules 20) / Pml 1448757_at (Group G1, Modules 20) / Pml 1456103_at (Group G1, Modules 20) / Rnf213 1455500_at (Group G1, Modules 20) / Rsad2 1436058_at (Group G1, Modules 20) / Shisa5 1423986_a_at (Group G1, Modules 20): ID, LV", "summary_of_the_method": "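Per-sample fold-change values converted to gene-wise z-scores within each organ's data set, then triplicate z-scores summed per adjuvant. Genes with summed score >3 taken as preferentially expressed; gene groups defined by combined per-adjuvant z-score thresholds (z>1 to z>3) specific to each organ.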"}, "liver (LV)": {"system": "liver (LV)", "assay": "Whole organ transcriptome (GeneChip microarray) of liver 6 h after adjuvant administration: sDEGs, hierarchical clustering; on adjuvant group (cluster) in LV: key: G1 (interferon signaling); G2 (metabolism of lipids and lipoproteins); G3 (response to stress); G4 (response to wounding); G5 (phosphate-containing compound metabolic process); G6 (phagosome)", "assay_type": "in vivo, C57BL/6 mice", "conditions": "liver"}}, "data": [{"smiles": "Cc1ccc2c(=O)c3cccc(CC(=O)O)c3oc2c1C", "note": "[DMXAA, 5,6-dimethylxanthenone-4-acetic acid]", "values": [{"measurement": "Shisa5 1437503_a_at (Group G1, Modules 20)", "setting": "[1]; sample x1", "value": 2.12}, {"measurement": "Stat1 1450033_a_at (Group G1, Modules 20)", "setting": "[1]; sample x1", "value": 1.5}, {"measurement": "Stat1 1450034_at (Group G1, Modules 20)", "setting": "[1]; sample x1", "value": 1.53}, {"measurement": "Tdrd7 1426716_at (Group G1, Modules 20)", "setting": "[1]; sample x1", "value": 1.6}, {"measurement": "Tor1aip2 1418115_s_at (Group G1, Modules 20)", "setting": "[1]; sample x1", "value": 2.45}, {"measurement": "Tor1aip2 1418116_at (Group G1, Modules 20)", "setting": "[1]; sample x1", "value": 2.19}, {"measurement": "Tor1aip2 1435526_at (Group G1, Modules 20)", "setting": "[1]; sample x1", "value": 2.23}, {"measurement": "Trim12a 1437432_a_at (Group G1, Modules 20)", "setting": "[1]; sample x1", "value": 1.82}, {"measurement": "Uba7 1426970_a_at (Group G1, Modules 20)", "setting": "[1]; sample x1", "value": 1.81}, {"measurement": "Adar 1425405_a_at (Group G1, Modules 20)", "setting": "[1]; sample x2", "value": 1.5}, {"measurement": "Adar 1434268_at (Group G1, Modules 20)", "setting": "[1]; sample x2", "value": 1.52}, {"measurement": "Ddx58 1436562_at (Group G1, Modules 20)", "setting": "[1]; sample x2", "value": 1.54}, {"measurement": "Ddx58 1456890_at (Group G1, Modules 20)", "setting": "[1]; sample x2", "value": 1.93}, {"measurement": "Eif2ak2 1422005_at (Group G1, Modules 20)", "setting": "[1]; sample x2", "value": 1.3}, {"measurement": "G3bp2 1421323_a_at (Group G1, Modules 20)", "setting": "[1]; sample x2", "value": 1.22}, {"measurement": "Gm9706///Isg15 1431591_s_at (Group G1, Modules 20)", "setting": "[1]; sample x2", "value": 1.39}, {"measurement": "H2-T10///H2-T22///H2-T9 1449875_s_at (Group G1, Modules 20)", "setting": "[1]; sample x2", "value": 1.64}, {"measurement": "Ifih1 1426276_at (Group G1, Modules 20)", "setting": "[1]; sample x2", "value": 1.09}, {"measurement": "Ifit1 1450783_at (Group G1, Modules 20)", "setting": "[1]; sample x2", "value": 1.54}, {"measurement": "Ifit3 1449025_at (Group G1, Modules 20)", "setting": "[1]; sample x2", "value": 1.3}, {"measurement": "Irf7 1417244_a_at (Group G1, Modules 20)", "setting": "[1]; sample x2", "value": 1.18}, {"measurement": "Irgm1 1418825_at (Group G1, Modules 20)", "setting": "[1]; sample x2", "value": 1.33}, {"measurement": "Mndal 1426906_at (Group G1, Modules 20)", "setting": "[1]; sample x2", "value": 1.19}, {"measurement": "Pml 1448757_at (Group G1, Modules 20)", "setting": "[1]; sample x2", "value": 1.35}, {"measurement": "Pml 1456103_at (Group G1, Modules 20)", "setting": "[1]; sample x2", "value": 1.34}, {"measurement": "Rnf213 1455500_at (Group G1, Modules 20)", "setting": "[1]; sample x2", "value": 1.2}, {"measurement": "Rsad2 1436058_at (Group G1, Modules 20)", "setting": "[1]; sample x2", "value": 1.25}, {"measurement": "Shisa5 1423986_a_at (Group G1, Modules 20)", "setting": "[1]; sample x2", "value": 1.81}, {"measurement": "Shisa5 1437503_a_at (Group G1, Modules 20)", "setting": "[1]; sample x2", "value": 1.62}, {"measurement": "Stat1 1450033_a_at (Group G1, Modules 20)", "setting": "[1]; sample x2", "value": 1.73}, {"measurement": "Stat1 1450034_at (Group G1, Modules 20)", "setting": "[1]; sample x2", "value": 1.96}, {"measurement": "Tdrd7 1426716_at (Group G1, Modules 20)", "setting": "[1]; sample x2", "value": 1.74}, {"measurement": "Tor1aip2 1418115_s_at (Group G1, Modules 20)", "setting": "[1]; sample x2", "value": 1.52}, {"measurement": "Tor1aip2 1418116_at (Group G1, Modules 20)", "setting": "[1]; sample x2", "value": 1.92}, {"measurement": "Tor1aip2 1435526_at (Group G1, Modules 20)", "setting": "[1]; sample x2", "value": 1.48}, {"measurement": "Trim12a 1437432_a_at (Group G1, Modules 20)", "setting": "[1]; sample x2", "value": 1.56}, {"measurement": "Uba7 1426970_a_at (Group G1, Modules 20)", "setting": "[1]; sample x2", "value": 1.59}, {"measurement": "Adar 1425405_a_at (Group G1, Modules 20)", "setting": "[1]; sample x3", "value": 0.93}, {"measurement": "Adar 1434268_at (Group G1, Modules 20)", "setting": "[1]; sample x3", "value": 0.92}, {"measurement": "Ddx58 1436562_at (Group G1, Modules 20)", "setting": "[1]; sample x3", "value": 1.31}, {"measurement": "Ddx58 1456890_at (Group G1, Modules 20)", "setting": "[1]; sample x3", "value": 1.56}, {"measurement": "Eif2ak2 1422005_at (Group G1, Modules 20)", "setting": "[1]; sample x3", "value": 0.68}, {"measurement": "G3bp2 1421323_a_at (Group G1, Modules 20)", "setting": "[1]; sample x3", "value": 0.71}, {"measurement": "Gm9706///Isg15 1431591_s_at (Group G1, Modules 20)", "setting": "[1]; sample x3", "value": 0.8}, {"measurement": "H2-T10///H2-T22///H2-T9 1449875_s_at (Group G1, Modules 20)", "setting": "[1]; sample x3", "value": 0.51}, {"measurement": "Ifih1 1426276_at (Group G1, Modules 20)", "setting": "[1]; sample x3", "value": 0.78}, {"measurement": "Ifit1 1450783_at (Group G1, Modules 20)", "setting": "[1]; sample x3", "value": 1.04}, {"measurement": "Ifit3 1449025_at (Group G1, Modules 20)", "setting": "[1]; sample x3", "value": 0.74}, {"measurement": "Irf7 1417244_a_at (Group G1, Modules 20)", "setting": "[1]; sample x3", "value": 1}, {"measurement": "Irgm1 1418825_at (Group G1, Modules 20)", "setting": "[1]; sample x3", "value": 0.79}, {"measurement": "Mndal 1426906_at (Group G1, Modules 20)", "setting": "[1]; sample x3", "value": 0.73}, {"measurement": "Pml 1448757_at (Group G1, Modules 20)", "setting": "[1]; sample x3", "value": 0.83}, {"measurement": "Pml 1456103_at (Group G1, Modules 20)", "setting": "[1]; sample x3", "value": 0.34}, {"measurement": "Rnf213 1455500_at (Group G1, Modules 20)", "setting": "[1]; sample x3", "value": 0.97}, {"measurement": "Rsad2 1436058_at (Group G1, Modules 20)", "setting": "[1]; sample x3", "value": 0.44}, {"measurement": "Shisa5 1423986_a_at (Group G1, Modules 20)", "setting": "[1]; sample x3", "value": 1.42}, {"measurement": "Shisa5 1437503_a_at (Group G1, Modules 20)", "setting": "[1]; sample x3", "value": 1.72}, {"measurement": "Stat1 1450033_a_at (Group G1, Modules 20)", "setting": "[1]; sample x3", "value": 1.15}, {"measurement": "Stat1 1450034_at (Group G1, Modules 20)", "setting": "[1]; sample x3", "value": 1.16}, {"measurement": "Tdrd7 1426716_at (Group G1, Modules 20)", "setting": "[1]; sample x3", "value": 1.09}, {"measurement": "Tor1aip2 1418115_s_at (Group G1, Modules 20)", "setting": "[1]; sample x3", "value": 0.98}, {"measurement": "Tor1aip2 1418116_at (Group G1, Modules 20)", "setting": "[1]; sample x3", "value": 1.37}, {"measurement": "Tor1aip2 1435526_at (Group G1, Modules 20)", "setting": "[1]; sample x3", "value": 1.01}, {"measurement": "Trim12a 1437432_a_at (Group G1, Modules 20)", "setting": "[1]; sample x3", "value": 1.11}, {"measurement": "Uba7 1426970_a_at (Group G1, Modules 20)", "setting": "[1]; sample x3", "value": 1.21}, {"measurement": "preferentially induced biological process relative to adjuvants targeting the same receptor", "setting": "[1]; LN, z-scores and 40 module mapping", "value": "preferentially induced RNA processing and gene expression responses more than cdiGMP or cGAMP"}, {"measurement": "adjuvant group-associated biological features", "setting": "[1]; z-score selected genes, TargetMine and IPA upstream cytokine analyses", "value": "strongly associated with type I and type II interferon responses"}, {"measurement": "adjuvant group (cluster) in LV", "setting": "liver (LV); hierarchical clustering", "value": "G1"}, {"measurement": "Number of gene probes with statistically significant changes (sDEGs), LV, Down", "setting": "liver (LV); i.d. administration, fold change <0.667, p<0.01, customized PA call=1, 6 h after adjuvant", "value": 101}, {"measurement": "Number of gene probes with statistically significant changes (sDEGs), LV, Up", "setting": "liver (LV); i.d. administration, fold change >1.5, p<0.01, customized PA call=1, 6 h after adjuvant", "value": 162}]}]}
